Each molecule was assayed against T1, human PAH with the R408W mutation (Homo sapiens, UniProt P00439, R408W) (assay: Cell Based Phenylalanine Flux Assay). Conditions: A375 cells expressing R408W PAH; 24 hrs with compound, then 20 µM sepiapterin and 800 µM 13C9,15N-Phenylalanine for 4 hours; 13C-Tyrosine by LC-MS; average where tested multiple times; read-out: AC50.
T1 construct: expressed in transfected cells
T1 sequence (P00439 1-452 R408W): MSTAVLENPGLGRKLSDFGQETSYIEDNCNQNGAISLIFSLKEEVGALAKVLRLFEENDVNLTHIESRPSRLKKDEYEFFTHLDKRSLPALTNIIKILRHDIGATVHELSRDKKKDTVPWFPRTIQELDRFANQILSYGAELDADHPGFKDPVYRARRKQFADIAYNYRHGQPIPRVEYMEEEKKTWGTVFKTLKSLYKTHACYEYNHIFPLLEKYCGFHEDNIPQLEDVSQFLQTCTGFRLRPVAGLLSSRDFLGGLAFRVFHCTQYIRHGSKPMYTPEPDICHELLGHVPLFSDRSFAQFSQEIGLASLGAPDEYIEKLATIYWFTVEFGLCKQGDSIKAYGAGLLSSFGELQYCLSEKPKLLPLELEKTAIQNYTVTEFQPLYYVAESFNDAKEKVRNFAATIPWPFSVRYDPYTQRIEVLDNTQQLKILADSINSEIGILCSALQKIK
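Note: after compound treatment, cells received sepiapterin plus isotope-labelled Phenylalanine for 4 hours, then labelled Tyrosine in the medium was quantified, 10-point 2-fold dilution series run in duplicate.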

Compound | AC50
Fc1ncccc1-c1nnc(N2CCc3[nH]cnc3C2c2cc3c(C4CC4)cccn3n2)o1 (stereo not shown) | > 5 µM
Fc1ncccc1-c1nnc(N2CCc3[nH]cnc3C2c2cc3c(C(F)F)cccn3n2)o1 (stereo not shown) [listing 1 of 2 here] | > 5 µM
FC(F)c1cccn2nc(C3c4nc[nH]c4CCN3c3nc4ccccc4o3)cc12 (stereo not shown) | > 5 µM
COCc1ncc(C(=O)N2CCc3[nH]cnc3C2c2cc3ccccn3n2)s1 (stereo not shown) | 1 to 5 µM
CN(C)C(=O)c1nnc(N2CCc3[nH]cnc3C2c2cc3c(F)cccn3n2)o1 (stereo not shown) | 1 to 5 µM
Cc1nc(C(=O)N2CCc3[nH]cnc3C2c2cc3cccc(Cl)n3n2)n(C)n1 (stereo not shown) | > 5 µM
Cn1ccc(C(=O)N2CCc3[nH]cnc3C2c2cc3ccccn3n2)n1 (stereo not shown) | > 5 µM
Fc1ncccc1-c1nnc(N2CCc3[nH]cnc3C2c2cc3c(C(F)F)cccn3n2)o1 (stereo not shown) [listing 2 of 2 here] | 1 to 5 µM
Cc1nnc(C(=O)N2CCc3[nH]cnc3C2c2cc3cccc(F)n3n2)o1 (stereo not shown) | 1 to 5 µM
FC(F)c1cccc2cc(C3c4nc[nH]c4CCN3c3ncccn3)nn12 (stereo not shown) | 1 to 5 µM
COc1cccn2nc([C@@H]3c4nc[nH]c4CCN3C(=O)c3nnc(C(C)(C)O)o3)cc12 (single isomer, unassigned) | > 5 µM

Same assay, conditions: A375 cells expressing human PAH R408W; 24 hrs compound incubation; 13C-Tyrosine by LC-MS; average where tested multiple times; read-out: AC50

Compound | AC50
O=C(c1oc(-c2ccccn2)nc1C1CC1)N1CCc2[nH]cnc2[C@@H]1c1cc2c(F)cccn2n1 [Example 2119, (R)-(4-cyclopropyl-2-(pyridin-2-yl)oxazol-5-yl)(4-(4-fluoropyrazolo[1,5-a]pyridin-2-yl)-1,4,6,7-tetrahydro-5H-imidazo[4,5-c]pyridin-5-yl)methanone] | 1 to 5 µM
CC(F)(F)c1nnc(N2CCc3[nH]cnc3[C@H]2c2cc3c(C(F)F)cccn3n2)o1 [Example 2203, (S)-2-(1,1-difluoroethyl)-5-(4-(4-(difluoromethyl)pyrazolo[1,5-a]pyridin-2-yl)-1,4,6,7-tetrahydro-5H-imidazo[4,5-c]pyridin-5-yl)-1,3,4-oxadiazole] | < 0.5 µM
O=C(c1ocnc1C1CC1)N1CCc2[nH]cnc2[C@@H]1c1cc2c(F)cccn2n1 [Example 1987, (R)-(4-cyclopropyloxazol-5-yl)(4-(4-fluoropyrazolo[1,5-a]pyridin-2-yl)-1,4,6,7-tetrahydro-5H-imidazo[4,5-c]pyridin-5-yl)methanone] | 1 to 5 µM
CC(C)(F)c1ncc(C(=O)N2CCc3[nH]cnc3[C@H]2c2cc3c(C(F)F)cccn3n2)o1 [Example 2106, (S)-(4-(4-(difluoromethyl)pyrazolo[1,5-a]pyridin-2-yl)-1,4,6,7-tetrahydro-5H-imidazo[4,5-c]pyridin-5-yl)(2-(2-fluoropropan-2-yl)oxazol-5-yl)methanone] | < 0.5 µM
Cc1ncccc1-c1nnc(N2CCc3[nH]cnc3[C@@H]2c2cc3c(C(C)C)cccn3n2)o1 [Example 2235, (R)-2-(4-(4-isopropylpyrazolo[1,5-a]pyridin-2-yl)-1,4,6,7-tetrahydro-5H-imidazo[4,5-c]pyridin-5-yl)-5-(2-methylpyridin-3-yl)-1,3,4-oxadiazole] | > 5 µM
Cc1cccnc1-c1nnc(N2CCc3[nH]cnc3[C@@H]2c2cc3c(C(F)F)cccn3n2)o1 [Example 2278, (R)-2-(4-(4-(difluoromethyl)pyrazolo[1,5-a]pyridin-2-yl)-1,4,6,7-tetrahydro-5H-imidazo[4,5-c]pyridin-5-yl)-5-(3-methylpyridin-2-yl)-1,3,4-oxadiazole] | > 5 µM
Nc1cnc(N2CCc3[nH]cnc3[C@H]2c2cc3c(C(F)(F)F)cccn3n2)nc1 [Example 1835, (S)-2-(4-(4-(trifluoromethyl)pyrazolo[1,5-a]pyridin-2-yl)-1,4,6,7-tetrahydro-5H-imidazo[4,5-c]pyridin-5-yl)pyrimidin-5-amine] | 0.5 to 1 µM

Same assay, conditions: A375 cells expressing human R408W PAH; 24 hrs compound incubation; 13C-Tyrosine by LC-MS; average where tested multiple times; read-out: AC50

Compound | AC50
C[C@@H](O)c1nc(C(F)F)c(C(=O)N2CCc3[nH]cnc3[C@@H]2c2cc3c(Cl)cccn3n2)o1 [Example 703, ((R)-4-(4-chloropyrazolo[1,5-a]pyridin-2-yl)-6,7-dihydro-1H-imidazo[4.5-c]pyridin-5(4H)-yl)(4-(difluoromethyl)-2-((R)-1-hydroxyethyl)oxazol-5-yl)methanone] | 1 to 5 µM
O=C(c1nnc(C2CCC2)o1)N1CCc2[nH]cnc2[C@@H]1c1cc2cccc(F)n2n1 [Example 1574, (R)-(5-cyclobutyl-1,3,4-oxadiazol-2-yl)(4-(7-fluoropyrazolo[1,5-a]pyridin-2-yl)-6,7-dihydro-1H-imidazo[4,5-c]pyridin-5(4H)-yl)methanone] | 1 to 5 µM
O=C(c1nnc(-c2ccn(C(F)(F)F)n2)o1)N1CCc2[nH]cnc2[C@@H]1c1cc2c(C(F)(F)F)cccn2n1 [Example 1513, (R)-(5-(1-(trifluoromethyl)-1H-pyrazol-3-yl)-1,3,4-oxadiazol-2-yl)(4-(4-(trifluoromethyl)pyrazolo[1,5-a]pyridin-2-yl)-6,7-dihydro-1H-imidazo[4,5-c]pyridin-5(4H)-yl)methanone] | 1 to 5 µM
CN(C)Cc1ccc2c(C(=O)N3CCc4[nH]cnc4[C@H]3c3cc4c(Cl)cccn4n3)cnn2c1 [Example 1634, (S)-(4-(4-chloropyrazolo[1,5-a]pyridin-2-yl)-6,7-dihydro-1H-imidazo[4,5-c]pyridin-5(4H)-yl)(6-((dimethylamino)methyl)pyrazolo[1,5-a]pyridin-3-yl)methanone] | 0.5 to 1 µM
O=C(c1nnc(-c2ncccc2F)o1)N1CCc2[nH]cnc2[C@@H]1c1cc2cccc(C(F)(F)F)n2n1 [Example 1035, (R)-(5-(3-fluoropyridin-2-yl)-1,3,4-oxadiazol-2-yl)(4-(7-(trifluoromethyl)pyrazolo[1,5-a]pyridin-2-yl)-6,7-dihydro-1H-imidazo[4,5-c]pyridin-5(4H)-yl)methanone] | > 5 µM
Cn1nc(C(F)F)nc1C(=O)N1CCc2[nH]cnc2[C@@H]1c1cc2c(F)cccn2n1 [Example 765, (R)-(3-(difluoromethyl)-1-methyl-1H-1,2,4-triazol-5-yl)(4-(4-fluoropyrazolo[1,5-a]pyridin-2-yl)-6,7-dihydro-1H-imidazo[4,5-c]pyridin-5(4H)-yl)methanone] | 1 to 5 µM
O=C(c1ocnc1C(F)F)N1CCc2[nH]cnc2[C@@H]1c1cc2c(F)cccn2n1 [Example 759, (R)-(4-(difluoromethyl)oxazol-5-yl)(4-(4-fluoropyrazolo[1,5-a]pyridin-2-yl)-6,7-dihydro-1H-imidazo[4,5-c]pyridin-5(4H)-yl)methanone] | 1 to 5 µM
COc1ccc2c(C(=O)N3CCc4[nH]cnc4[C@@H]3c3cc4c(Cl)cccn4n3)cnn2c1 [Example 1699, (R)-(4-(4-chloropyrazolo[1,5-a]pyridin-2-yl)-6,7-dihydro-1H-imidazo[4,5-c]pyridin-5(4H)-yl)(6-methoxypyrazolo[1,5-a]pyridin-3-yl)methanone] | > 5 µM
Cc1nn(C)cc1-c1nnc(C(=O)N2CCc3[nH]cnc3[C@@H]2c2cc3c(F)cccn3n2)o1 [Example 847, (R)-(5-(1,3-dimethyl-1H-pyrazol-4-yl)-1,3,4-oxadiazol-2-yl)(4-(4-fluoropyrazolo[1,5-a]pyridin-2-yl)-6,7-dihydro-1H-imidazo[4,5-c]pyridin-5(4H)-yl)methanone] | > 5 µM
Clc1cccn2nc([C@H]3c4nc[nH]c4CCN3c3nnc(C4CC4)o3)cc12 [Example 1454, (R)-2-(4-(4-chloropyrazolo[1,5-a]pyridin-2-yl)-1,4,6,7-tetrahydro-5H-imidazo[4,5-c]pyridin-5-yl)-5-cyclopropyl-1,3,4-oxadiazole] | > 5 µM

Source: patent publication US20230365592A1 (Agios Pharmaceuticals, Inc., priority 2022, published 2023)
